Data set [1] is described as follows: Rat oral pharmacokinetics (plasma). As to conditions: 20-30 μmol/kg. Format: in vivo.
The next data set deals with human neutrophils. Description: Human neutrophil chemotaxis induced by fMLP (modified Boyden chamber). The format is cell-based. Conditions: Neutrophil, 1 h, 1 μM fMLP challenge, one hour, read-out: Chemotaxis Avg. IC50. The text has this:
This assay is an in vitro assay of neutrophil chemotaxis that can be used to evaluate the ability of Rho Kinase inhibitor compounds of Formula I or II to inhibit the migration of human neutrophils, an inflammatory cell that has been implicated in the pathophysiology of allergic conjunctivitis.
Peripheral blood from healthy human volunteers was collected and the neutrophils were isolated by Ficoll-paque density centrifugation followed by dextran sedimentation and hypotonic lysis of the red blood cells. Neutrophil chemotaxis was assessed using a modified Boyden Chamber (Neuroprobe, 96-well) with a 3 μm pore polycarbonate membrane. The ability of the tested compounds to block chemotaxis induced by a 1 μM fMLP challenge during a one hour incubation at 37° C. with 5% CO2 was assessed in a dose response manner.

The nature of data set [2]: Compound concentrations in lungs of ova-sensitized, ova-challenged mice post IP, PO and IT administration. Format: in vivo. As to conditions: male, Balb/c, mouse, lung, BD model, PO 15 μmol/kg, time point 3 h, n = 9 or 10, read-out: Lung concentration (plasma corrected). How it is done:
Additionally, compound concentrations were determined in the plasma and lungs of male, ovalbumin-sensitized, Balb/c mice from a murine model of asthma. Test compounds were formulated in water or 1% polysorbate 80 and dosed at 15 μmol/kg for intraperitoneal (IP) or oral (PO) administration or formulated for intratracheal (IT) administration and dosed at 5 μmol/kg, which directly targets the lungs. Following completion of the in vivo study, mice were euthanized and blood and plasma collected approximately 2.5-3 hours post administration of test compound for bronchodialator (BD) studies and 24 hours post administration for anti-inflamatory (AI) studies. Lungs were homogenized in Matrix A lysing tubes using a FastPrep 24 tissue and cell homogenizer (MP Biomedicals, Solon, Ohio). Both plasma samples and lung extracts were assayed for compound concentrations using an on-line, solid phase extraction LC/MS/MS system. The actual lung tissue concentrations of each compound in mouse were extrapolated from the lung and plasma concentrations, data are shown in Table 11. The results of a set of experiments using unsensitized mice and collecting only plasma 15 minutes post administration of test compounds are shown in Table 12.

The target in another data set is T1, ROCK2 (Homo sapiens, UniProt O75116).
T1 construct: purchased Upstate/Chemicon 14-451
Description: Rho kinase inhibition assay (IMAP fluorescence polarization), ROCK2.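 Note: kinase reaction started with 10 µM ATP and run 60 min at room temperature, then phosphorylated substrate captured on IMAP beads for 30 min and fluorescence polarization read in mP.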 The format is biochemical. On the technique in general: Polarisation of emitted light reports the rotation of a fluorescent probe.

For the next data set, the target named is T2, ROCK1 (Homo sapiens, UniProt Q13464).
T2 construct: purchased Upstate/Chemicon 14-601
Briefly: Rho kinase inhibition assay (IMAP fluorescence polarization), ROCK1.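 Note: kinase reaction run 60 min at room temperature, then phosphorylated substrate captured on IMAP beads for 30 min, with fluorescence polarization read in mP.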 Format: biochemical.

The target in the next data set is T3, IRAK1 (Homo sapiens, UniProt P51617).
T3 construct: purchased Upstate, Millipore Bioscience Division (KinaseProfiler service)
Briefly: Kinase panel screen (KinaseProfiler), IRAK1. The format is biochemical. Conditions: 10 μM ATP. The procedure: (§1) Compounds of Formulae I and II were examined for activity against a selected panel of kinases using the KinaseProfiler™ enzyme profiling services (Upstate, Millipore Bioscience Division). Percent kinase activity at 10 μM and 1 μM test compound and 10 μM ATP was determined against 40 wild-type recombinant human kinases according to Upstate's standard protocol: ASK1, BTK, CSK, c-RAF, GCK, GSK3β, IKKα, IKKβ, IRAK1, IRAK4, JNK1α1, JNK2α2, JNK3, ERK1, ERK2, MAPKAP-K2, MAPKAP-K3, MEK1, MKK4, MKK6, MKK7β, Mnk2, MSK1, PAK3, PDK1, PRAK, ROCK1, Rsk2, SAPK2a, SAPK2b, SAPK3, SAPK4, SRPK1, SRPK2, Syk, TAK1, TBK1, PI3-Kβ, PI3-Kγ, PI3-Kδ.

The next data set deals with T4, ERK1 (Homo sapiens, UniProt P27361).
T4 construct: purchased Upstate, Millipore Bioscience Division (KinaseProfiler service)
Description: Kinase panel screen (KinaseProfiler), ERK1. The format is biochemical. Conditions: 10 μM ATP. How it is done: as §1

Data set [3] in a line: Compound plasma concentrations in unsensitized mice at 15 min post administration. Format: in vivo. Conditions: mouse, 15 μmol/kg; mean compound plasma concentration in mice at 15 minutes post oral administration; read-out: Mouse Oral PK.
For a further data set, the target named is T5, Mnk2 (Homo sapiens, UniProt Q9HBH9).
T5 construct: purchased Upstate, Millipore Bioscience Division (KinaseProfiler service)
Description: Kinase panel screen (KinaseProfiler), Mnk2. The format is biochemical. As to conditions: 10 μM ATP. The procedure: as §1

The target of a further data set is T6, p70S6K human enzyme (Homo sapiens, UniProt P23443, T412E).
T6 construct: purchased Upstate Chemicon 14-486
Briefly: p70S6K inhibition assay (IMAP FP).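 Note: kinase reaction run at room temperature, phosphorylated substrate captured on IMAP beads and read as fluorescence polarization in mP, IC50 then converted to Ki.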 The format is biochemical.

A further data set deals with T7, Akt3 human enzyme (Homo sapiens, UniProt Q9Y243).
T7 construct: purchased Upstate Chemicon 14-502
Briefly: Akt3 inhibition assay (IMAP FP).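 Note: kinase reaction run 60 min at room temperature after 30 µM ATP start, phosphorylated substrate captured on IMAP beads and read as fluorescence polarization (mP).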 Format: biochemical.

The next data set concerns the target T8, IRAK4 (Homo sapiens, UniProt Q9NWZ3).
T8 construct: purchased Upstate, Millipore Bioscience Division (KinaseProfiler service)
T8 sequence (Q9NWZ3 1-460): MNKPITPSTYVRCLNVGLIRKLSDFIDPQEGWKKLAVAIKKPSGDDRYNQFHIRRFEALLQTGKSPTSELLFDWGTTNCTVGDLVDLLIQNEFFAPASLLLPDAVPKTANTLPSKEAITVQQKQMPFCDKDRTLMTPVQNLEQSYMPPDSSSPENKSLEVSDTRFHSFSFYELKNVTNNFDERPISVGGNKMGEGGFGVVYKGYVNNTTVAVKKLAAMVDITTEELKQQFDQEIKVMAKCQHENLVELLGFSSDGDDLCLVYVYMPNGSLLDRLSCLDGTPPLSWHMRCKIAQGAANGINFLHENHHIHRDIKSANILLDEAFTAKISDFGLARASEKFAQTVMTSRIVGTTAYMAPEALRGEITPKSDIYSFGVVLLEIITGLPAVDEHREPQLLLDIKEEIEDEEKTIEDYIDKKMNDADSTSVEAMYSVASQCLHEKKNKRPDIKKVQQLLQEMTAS
Description: Kinase panel screen (KinaseProfiler), IRAK4. Format: biochemical. As to conditions: 10 μM ATP. How it is done:
as §1

The next data set concerns the target T9, ERK2 (Homo sapiens, UniProt P28482).
T9 construct: purchased Upstate, Millipore Bioscience Division (KinaseProfiler service)
Description: Kinase panel screen (KinaseProfiler), ERK2. The format is biochemical. How it is done: as §1

In data set [4] the test system is A-10 rat thoracic aorta cells. Description: PDGF-stimulated smooth muscle cell proliferation assay (BrdU incorporation).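 Note: cells kept in serum-free medium, BrdU allowed to incorporate for 24 h, then incorporated label detected fluorometrically with an anti-BrdU antibody.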 The format is cell-based. Conditions: A-10 cells, 10 ng/mL PDGF, BrdU incorporation, percent of total challenge-stimulated proliferation. On the technique in general: Dividing cells build labelled thymidine or BrdU into new DNA.
Description: Effects on cell proliferation were measured using a bromodeoxyuridine (BrdU) incorporation assay. […] Serum free media containing 01% BSA was added to the cells. 24 hours later the media was removed and replaced with warmed serum free media. […] Proliferation was then monitored using the BrdU Cell Proliferation Assay, HTS (Calbiochem cat. #t HTS01). BrdU was allowed to incorporate into cells for 24 hours prior to the addition of fixative/denaturing solution and the fluorometric detection of incorporated BrdU using a BrdU antibody as per manufacturer's directions. Data are reported as a percent of the PDGF-stimulated BrdU incorporation.
A further data set addresses T10, GCK (Homo sapiens, UniProt Q12851).
T10 construct: purchased Upstate, Millipore Bioscience Division (KinaseProfiler service)
T10 sequence (Q12851 1-820): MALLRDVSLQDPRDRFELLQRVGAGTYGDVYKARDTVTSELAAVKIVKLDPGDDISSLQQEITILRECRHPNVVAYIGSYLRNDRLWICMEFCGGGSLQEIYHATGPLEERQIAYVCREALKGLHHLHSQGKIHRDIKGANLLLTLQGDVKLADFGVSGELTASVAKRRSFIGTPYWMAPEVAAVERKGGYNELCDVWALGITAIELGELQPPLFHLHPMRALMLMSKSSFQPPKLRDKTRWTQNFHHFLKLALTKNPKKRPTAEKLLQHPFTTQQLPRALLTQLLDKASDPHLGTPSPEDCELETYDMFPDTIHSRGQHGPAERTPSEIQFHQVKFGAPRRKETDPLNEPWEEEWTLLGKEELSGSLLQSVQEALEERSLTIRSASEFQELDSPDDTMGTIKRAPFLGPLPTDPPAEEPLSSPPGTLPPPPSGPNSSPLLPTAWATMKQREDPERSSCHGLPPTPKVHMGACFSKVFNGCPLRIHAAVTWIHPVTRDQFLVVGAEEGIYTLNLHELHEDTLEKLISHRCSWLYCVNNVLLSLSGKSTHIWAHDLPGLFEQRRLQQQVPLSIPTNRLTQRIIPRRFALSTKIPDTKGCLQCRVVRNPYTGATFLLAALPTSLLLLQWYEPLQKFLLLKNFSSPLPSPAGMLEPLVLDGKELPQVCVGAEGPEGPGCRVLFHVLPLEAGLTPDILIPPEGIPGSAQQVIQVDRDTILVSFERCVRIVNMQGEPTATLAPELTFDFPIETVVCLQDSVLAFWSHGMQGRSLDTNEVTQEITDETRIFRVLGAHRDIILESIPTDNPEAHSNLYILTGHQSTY
Description: Kinase panel screen (KinaseProfiler), GCK. The format is biochemical. How it is done:
as §1

The mark [5] stands for this setting: 10 μM ATP, read-out: ROCK2 Ki, Avg.

Where two headings read alike, the source gives them in different places.

T2 sequence (Q13464 17-535 limits assumed): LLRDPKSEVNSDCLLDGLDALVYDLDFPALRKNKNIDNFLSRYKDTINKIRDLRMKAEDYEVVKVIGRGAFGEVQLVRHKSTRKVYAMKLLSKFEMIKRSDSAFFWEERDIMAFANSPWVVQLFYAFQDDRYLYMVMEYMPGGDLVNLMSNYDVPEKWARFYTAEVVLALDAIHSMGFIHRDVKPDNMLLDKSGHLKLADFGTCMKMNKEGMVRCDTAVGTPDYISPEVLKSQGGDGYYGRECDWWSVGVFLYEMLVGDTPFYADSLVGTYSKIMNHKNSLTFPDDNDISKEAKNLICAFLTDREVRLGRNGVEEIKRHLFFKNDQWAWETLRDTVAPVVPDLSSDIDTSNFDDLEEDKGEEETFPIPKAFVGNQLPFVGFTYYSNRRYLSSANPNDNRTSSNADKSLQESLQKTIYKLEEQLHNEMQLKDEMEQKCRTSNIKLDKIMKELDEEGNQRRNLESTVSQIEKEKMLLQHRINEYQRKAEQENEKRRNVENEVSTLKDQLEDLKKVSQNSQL
T1 sequence (O75116 11-552 limits assumed): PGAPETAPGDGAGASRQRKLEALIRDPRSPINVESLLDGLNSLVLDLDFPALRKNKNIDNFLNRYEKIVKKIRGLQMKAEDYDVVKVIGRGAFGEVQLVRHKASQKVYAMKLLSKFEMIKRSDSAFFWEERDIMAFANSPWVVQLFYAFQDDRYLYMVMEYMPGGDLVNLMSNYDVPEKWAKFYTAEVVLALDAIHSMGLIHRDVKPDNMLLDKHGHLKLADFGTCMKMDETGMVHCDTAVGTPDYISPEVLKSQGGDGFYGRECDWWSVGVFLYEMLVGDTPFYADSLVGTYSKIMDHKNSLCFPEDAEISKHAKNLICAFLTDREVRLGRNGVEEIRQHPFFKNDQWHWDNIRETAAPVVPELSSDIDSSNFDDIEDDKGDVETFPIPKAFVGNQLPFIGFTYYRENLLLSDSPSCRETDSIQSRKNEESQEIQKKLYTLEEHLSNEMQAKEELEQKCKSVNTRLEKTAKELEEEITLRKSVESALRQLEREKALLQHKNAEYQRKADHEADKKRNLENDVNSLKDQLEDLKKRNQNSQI
T4 sequence (P27361 whole entry): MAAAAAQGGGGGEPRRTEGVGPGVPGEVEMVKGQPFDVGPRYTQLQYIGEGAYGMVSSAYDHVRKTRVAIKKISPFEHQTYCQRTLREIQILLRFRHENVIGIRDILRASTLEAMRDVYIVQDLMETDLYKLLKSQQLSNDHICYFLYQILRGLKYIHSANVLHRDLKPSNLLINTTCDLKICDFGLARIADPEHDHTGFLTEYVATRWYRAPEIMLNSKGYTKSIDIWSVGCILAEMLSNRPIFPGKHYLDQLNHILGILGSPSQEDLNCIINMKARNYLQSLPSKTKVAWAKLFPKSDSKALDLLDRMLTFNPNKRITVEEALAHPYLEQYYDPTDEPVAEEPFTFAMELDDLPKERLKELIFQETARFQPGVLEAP
T9 sequence (P28482 whole entry): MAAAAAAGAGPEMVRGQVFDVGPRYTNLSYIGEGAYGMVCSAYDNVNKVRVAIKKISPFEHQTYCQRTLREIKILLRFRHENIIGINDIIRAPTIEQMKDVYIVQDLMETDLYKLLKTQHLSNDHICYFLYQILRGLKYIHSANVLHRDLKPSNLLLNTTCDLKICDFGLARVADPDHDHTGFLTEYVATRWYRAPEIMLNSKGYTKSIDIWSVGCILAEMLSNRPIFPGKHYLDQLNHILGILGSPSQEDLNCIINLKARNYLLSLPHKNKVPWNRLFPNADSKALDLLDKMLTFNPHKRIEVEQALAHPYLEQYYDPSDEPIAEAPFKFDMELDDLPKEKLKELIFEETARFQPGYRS
T5 sequence (Q9HBH9 whole entry): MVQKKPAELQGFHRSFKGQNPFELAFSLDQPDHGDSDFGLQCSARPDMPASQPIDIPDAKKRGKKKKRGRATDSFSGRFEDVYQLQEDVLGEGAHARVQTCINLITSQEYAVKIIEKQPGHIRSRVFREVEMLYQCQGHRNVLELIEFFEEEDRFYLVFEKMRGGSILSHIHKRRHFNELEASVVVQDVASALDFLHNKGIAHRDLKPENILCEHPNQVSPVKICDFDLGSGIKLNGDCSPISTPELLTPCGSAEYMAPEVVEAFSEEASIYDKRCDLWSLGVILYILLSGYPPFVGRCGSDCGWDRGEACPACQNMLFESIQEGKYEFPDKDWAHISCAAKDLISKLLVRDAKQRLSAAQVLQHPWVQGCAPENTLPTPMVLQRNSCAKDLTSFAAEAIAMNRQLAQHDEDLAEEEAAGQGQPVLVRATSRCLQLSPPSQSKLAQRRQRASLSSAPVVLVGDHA
T7 sequence (Q9Y243 whole entry): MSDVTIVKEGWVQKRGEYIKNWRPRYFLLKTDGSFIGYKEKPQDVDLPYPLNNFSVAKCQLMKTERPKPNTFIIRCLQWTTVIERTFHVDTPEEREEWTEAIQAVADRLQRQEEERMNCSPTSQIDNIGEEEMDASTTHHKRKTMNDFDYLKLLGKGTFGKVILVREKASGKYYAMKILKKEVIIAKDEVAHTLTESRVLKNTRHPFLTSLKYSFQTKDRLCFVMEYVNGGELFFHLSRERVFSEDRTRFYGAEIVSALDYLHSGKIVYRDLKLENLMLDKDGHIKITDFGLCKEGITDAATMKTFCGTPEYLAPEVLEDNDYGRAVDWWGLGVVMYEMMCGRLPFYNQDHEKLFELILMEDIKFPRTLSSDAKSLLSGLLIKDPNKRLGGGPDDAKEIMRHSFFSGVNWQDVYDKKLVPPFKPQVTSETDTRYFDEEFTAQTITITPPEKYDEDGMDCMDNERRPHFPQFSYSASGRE
T6 sequence (P23443 1-421 T412E limits assumed): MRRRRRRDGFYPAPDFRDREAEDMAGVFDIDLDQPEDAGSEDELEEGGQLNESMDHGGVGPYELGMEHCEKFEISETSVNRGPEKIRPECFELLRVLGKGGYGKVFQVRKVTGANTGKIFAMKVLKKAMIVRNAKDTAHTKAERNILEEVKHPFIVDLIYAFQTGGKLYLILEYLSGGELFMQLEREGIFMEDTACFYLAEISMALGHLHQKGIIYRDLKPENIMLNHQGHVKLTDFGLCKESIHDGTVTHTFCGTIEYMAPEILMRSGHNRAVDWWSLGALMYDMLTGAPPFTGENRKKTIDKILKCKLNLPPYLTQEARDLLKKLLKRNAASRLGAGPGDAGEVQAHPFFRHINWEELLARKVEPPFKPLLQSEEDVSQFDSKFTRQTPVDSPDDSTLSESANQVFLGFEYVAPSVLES
T3 sequence (P51617 whole entry): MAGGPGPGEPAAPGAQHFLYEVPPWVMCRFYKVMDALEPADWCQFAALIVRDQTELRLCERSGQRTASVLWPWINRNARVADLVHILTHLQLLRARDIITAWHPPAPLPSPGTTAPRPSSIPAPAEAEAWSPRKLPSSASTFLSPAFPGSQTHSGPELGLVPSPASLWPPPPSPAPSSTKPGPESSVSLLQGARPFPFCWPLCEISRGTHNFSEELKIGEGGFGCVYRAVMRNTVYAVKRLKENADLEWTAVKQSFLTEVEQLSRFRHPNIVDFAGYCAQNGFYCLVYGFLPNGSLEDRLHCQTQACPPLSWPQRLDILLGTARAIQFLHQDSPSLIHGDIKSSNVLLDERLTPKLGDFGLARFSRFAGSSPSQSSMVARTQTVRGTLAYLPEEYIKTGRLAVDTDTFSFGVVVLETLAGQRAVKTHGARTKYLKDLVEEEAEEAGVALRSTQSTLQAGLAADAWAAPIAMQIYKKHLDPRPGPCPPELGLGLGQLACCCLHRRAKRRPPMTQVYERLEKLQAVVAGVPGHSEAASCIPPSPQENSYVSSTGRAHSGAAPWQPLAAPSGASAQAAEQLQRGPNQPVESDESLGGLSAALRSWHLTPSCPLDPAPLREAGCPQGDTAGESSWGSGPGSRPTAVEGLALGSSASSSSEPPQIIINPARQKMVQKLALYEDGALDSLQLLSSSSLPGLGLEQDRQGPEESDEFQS
Description for ROCK1: (§2) Following the pre-incubation, 10 μM ATP was added to initiate the reaction. After 60 minutes at room temperature, Molecular Devices IMAP™ binding solution was added to bind phosphorylated substrate. After 30 minutes of incubation in the presence of the IMAP™ beads, the fluorescence polarization was read and the ratio was reported as mP. IC50 values for compounds and EC50 values for ATP were calculated using the Prism software from Graphpad.
Description for ROCK2: as §2
Description for p70S6K human enzyme: Inhibition of Akt3 and p70S6K activity was determined using the IMAP™ FP Progressive Binding Kit (Molecular Devices product number R8127). […] Following the pre-incubation, 30 μM ATP was added to initiate the reaction. After 60 minutes at RT, Molecular Devices IMAP™ binding solution was added to bind phosphorylated substrate. After 30 minutes of incubation in the presence of the IMAP™ beads the fluorescence polarization was read and the ratio was reported as mP. IC50 results were calculated using the Prism software from Graphpad. The Ki values were determined according to the following formula: Ki=IC50/(1+([ATP Challenge]/EC50 ATP)).

A word on the AUC(0-t): it is exposure summed from dosing to a finite time, without extrapolation to infinity. Read a low AUC(0-t) as low exposure. A word on the Cmax: it is the highest concentration seen after dosing. As a reminder, the Tmax is the time from dosing to the highest level. A word on the IC50: it is the concentration that inhibits the measured activity by half. The term Ki denotes a dissociation constant, usually derived from enzyme kinetics or from competition with a known ligand. In [1] (mean n = 3), `OCCOc1cccc(CN2CCC[C@@H](Nc3ccc4[nH]ncc4c3)C2)c1` [Compound 1.092, (R)-2-(3-((3-(1H-indazol-5-ylamino)piperidin-1-yl)methyl)phenoxy)ethanol] registered a Vz_F of 19.0 L/kg. This compound gave an AUC(0-t) in [1] (male, CD Sprague Dawley, mean n = 3) of 1.85 µM·h. Moreover, the Cmax in [1] (male, CD Sprague Dawley, mean n = 3, read-out: Cmax) came out at 2100 nM. Moreover, the Tmax in data set [1] (male, CD Sprague Dawley, mean n = 3, read-out: Tmax) is 15 min. The half-life in data set [1] (male, CD Sprague Dawley, mean n = 3, read-out: t½ (converted)) was 104 min. Besides, in the data set with human neutrophils, the IC50 is 2750 nM. The concentration at 3 h in data set [2] turned out to be 152 nM. For the same compound, the inhibition constant (Ki) on ROCK2 (setting [5]) amounted to 28.4 nM; on ROCK1 (Avg, 10 μM ATP), 191 nM.

As for `NC(=O)Cn1ccc2cc(CN3CCC[C@@H](Nc4ccc5[nH]ncc5c4)C3)ccc21` [Compound 1.162, (R)-2-(5-((3-(1H-indazol-5-ylamino)piperidin-1-yl)methyl)-1H-indol-1-yl)acetamide], the activity at 1 µM was 100% at IRAK1 (1 μM test compound, read-out: IRAK1 Percent inhibition, 1 μM); 84% on ERK1 (1 μM test compound, read-out: ERK1 Percent inhibition, 1 μM); 111% at Mnk2 (1 μM test compound, read-out: Mnk2 Percent inhibition, 1 μM); 105% on IRAK4 (1 μM test compound, read-out: IRAK4 Percent inhibition, 1 μM). Further, the activity at 10 µM on IRAK1 (10 μM test compound, read-out: IRAK1 Percent inhibition, 10 μM) was found to be 97%; at ERK1 (10 μM test compound, read-out: ERK1 Percent inhibition, 10 μM), 50%; at Mnk2 (10 μM test compound, read-out: Mnk2 Percent inhibition, 10 μM), 65%; at IRAK4 (10 μM test compound, read-out: IRAK4 Percent inhibition, 10 μM), 88%; on GCK (10 μM test compound, 10 μM ATP, read-out: GCK Percent inhibition, 10 μM) it was 75%. Also, the concentration at 15 min in data set [3] amounted to 76 nM. In addition, the Ki at p70S6K human enzyme (30 μM ATP, Ki=IC50/(1+([ATP Challenge]/EC50 ATP)), read-out: p70S6K Ki, Avg) amounted to 387 nM; on p70S6K human enzyme (average Ki, read-out: p70S6K Ki), 387 nM; at Akt3 human enzyme (30 μM ATP, Ki=IC50/(1+([ATP Challenge]/EC50 ATP)), read-out: Akt3 Ki, Avg), 92 nM; at Akt3 human enzyme (average Ki, read-out: Akt3 Ki), 92 nM; on ROCK2 (setting [5]), 2.8 nM; on ROCK2 (average Ki, read-out: ROCK2 Ki), 2.8 nM. For the same compound, the inhibition constant (Ki) on ROCK1 (Avg, 10 μM ATP) was determined as 15.2 nM; on ROCK1 (average Ki), 15.2 nM. Also, on ERK2, the “ERK2 Percent inhibition, 1 μM” value stood at 89%. Besides, the “ERK2 Percent inhibition, 10 μM” value on ERK2 came out at 60%. Besides, in data set [4] (1 μM test compound), the “Percent of PDGF Induced Proliferation at 1 μM Avg” value stood at 55.6%. Further, the “Percent of PDGF Induced Proliferation at 10 μM Avg” value in data set [4] (10 μM test compound) was 42.5%. Further, the “GCK Percent inhibition, 1 μM” value at GCK amounted to 93%.

The record behind these values is US20090325959A1 (priority 2008, published 2009).
